Test [1] addresses human nociceptin/orphanin FQ peptide (hNOP) receptor (Homo sapiens (Human), UniProt P41146). The experiment in a line: hNOP receptor binding assay (SPA). The note with it: Ki; displacement of [leucyl-3H]nociceptin, hNOP receptor membranes; read-out: hNOP Ki [nM] or % inhibition at 1 μM. As to the method:
Human Nociceptin/Orphanin FQ Peptide (hNOP) Receptor Binding Assay
The hNOP receptor binding assay was performed as homogeneous SPA-assay (scintillation proximity assay) using the assay buffer 50 mM TRIS-HCl, 10 mM MgCl2, 1 mM EDTA (pH 7.4). The final assay volume (250 μl/well) included 0.5 nM of [leucyl-^3H]nociceptin as ligand (PerkinElmer Life Sciences. Inc. Boston, Mass. USA) and either test compound in dilution series or 1 μM unlabelled nociceptin for determination of unspecific binding. The test compound was diluted with 25% DMSO in H2O to yield a final 0.5% DMSO concentration which also served as a respective vehicle control. The assay was started by adding wheat germ agglutinin coated SPA beads (GE Healthcare UK Ltd. Buckinghamshire. UK) which had been preloaded with hNOP receptor membranes (PerkinElmer Life Sciences. Inc. Boston, Mass. USA). After incubation for 60 minutes at RT and centrifugation for 20 minutes at 500 rpm the signal rate was measured by means of a 1450 Microbeta Trilux ß-counter (PerkinElmer Life Sciences/Wallac. Turku. Finland). Half-maximal inhibitory concentration (IC50) values reflecting 50% displacement of [^3H]nociceptin-specific receptor binding were calculated by nonlinear regression analysis and Ki values were calculated by using the Cheng-Prusoff equation. (Cheng and Prusoff. 1973).

Test [2] addresses human mu-opioid peptide (hMOP) receptor (Homo sapiens (Human), UniProt P35372). As to the kind of experiment: hMOP receptor binding assay (SPA). Conditions: read-out: hMOP Ki [nM] or % inhibition at 1 μM; for Ki: displacement of [3H]naloxone, hMOP receptor membranes. As to the method: Human Mu-Opioidpeptide (hMOP) Receptor Binding Assay
The hMOP receptor binding assay was performed as homogeneous SPA-assay (scintillation proximity assay) using the assay buffer 50 mM TRIS-HCl (pH 7.4) supplemented with 0.052 mg/ml bovine serum albumin (Sigma-Aldrich Co. St. Louis, Mo.). […] The assay was started by adding wheat germ agglutinin coated SPA beads (GE Healthcare UK Ltd. Buckinghamshire. UK) which had been preloaded with hMOP receptor membranes (PerkinElmer Life Sciences. Inc. Boston, Mass. USA).
A general note: Loss of bound radioactivity is the signal in a displacement assay; it reports binding, not function.

The Ki is a measure of affinity in units of concentration, obtained from inhibition or displacement. Broadly, the inhibition is the change of the read-out against control, counted positive when it falls.

Chain of human mu-opioid peptide (hMOP) receptor (P35372 whole entry): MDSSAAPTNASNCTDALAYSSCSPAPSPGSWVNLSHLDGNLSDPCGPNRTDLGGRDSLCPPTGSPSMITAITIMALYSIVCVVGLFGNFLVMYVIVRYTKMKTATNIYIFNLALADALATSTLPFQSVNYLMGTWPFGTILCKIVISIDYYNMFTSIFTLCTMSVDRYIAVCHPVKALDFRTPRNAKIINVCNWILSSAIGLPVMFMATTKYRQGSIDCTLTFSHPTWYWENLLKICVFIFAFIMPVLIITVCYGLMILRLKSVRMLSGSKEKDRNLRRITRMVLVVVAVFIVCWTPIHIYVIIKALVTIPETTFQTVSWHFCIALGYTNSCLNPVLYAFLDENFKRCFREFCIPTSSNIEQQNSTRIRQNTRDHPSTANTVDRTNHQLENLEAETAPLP

On to `CN(C)[C@]1(c2cccc(F)c2)C[C@@]2(CN(c3ccc(OC(F)(F)F)cn3)C(=O)N2CC2CC2)C1` [SC-18, Cis-5-(cyclopropylmethyl)-2-(dimethylamino)-2-(3-fluorophenyl)-7-(5-(trifluoromethoxy)pyridin-2-yl)-5,7-diazaspiro[3.4]octan-6-one], for which the Ki in test [1] is 55 nM; in test [2], 805 nM.
As for `Cc1cc(C2CC2)ncc1N1C[C@]2(C[C@](c3ccccc3)(N(C)C)C2)N(CC2(F)COC2)C1=O` [SC-36, Cis-7-(6-cyclopropyl-4-methylpyridin-3-yl)-2-(dimethylamino)-5-((3-fluorooxetan-3-yl)methyl)-2-phenyl-5,7-diazaspiro[3.4]octan-6-one], the Ki was 10 nM in test [1] and 330 nM in test [2].
For `CN(C)[C@]1(c2ccccc2)C[C@@]2(CN(c3cnc(C#N)c(C(F)(F)F)c3)C(=O)N2CC2CC2)C1` [SC-40, Cis-5-[5-(cyclopropylmethyl)-2-(dimethylamino)-6-oxo-2-phenyl-5,7-diazaspiro[3.4]octan-7-yl]-3-(trifluoromethyl)pyridine-2-carbonitrile], the Ki in test [1] was determined as 6 nM; in test [2], 102 nM.
In the case of `CN(C)[C@]1(c2ccccc2)C[C@@]2(CN(c3ccc(OC(F)(F)F)cn3)C(=O)N2CC2CC2)C1` [SC-32, Cis-5-(cyclopropylmethyl)-2-(dimethylamino)-2-phenyl-7-(5-(trifluoromethoxy)pyridin-2-yl)-5,7-diazaspiro[3.4]octan-6-one], the figures for the Ki in test [1] and in test [2] were 36 nM and 100 nM, respectively.
For `CN(C)[C@]1(c2cccc(F)c2)C[C@@]2(CN(CC3(O)CCC3)C(=O)N2CC2CC2)C1` [SC-42, Cis-5-(cyclopropylmethyl)-2-(dimethylamino)-2-(3-fluorophenyl)-7-[(1-hydroxycyclobutyl)methyl]-5,7-diazaspiro[3.4]octan-6-one], in that order: 21 nM and 125 nM.
For `CN(C)[C@]1(c2cccc(F)c2)C[C@@]2(CN(c3ccc(C(C)(C)O)cc3)C(=O)N2CC2CC2)C1` [SC-28, Cis-5-(cyclopropylmethyl)-2-(dimethylamino)-2-(3-fluorophenyl)-7-(4-(2-hydroxypropan-2-yl)phenyl)-5,7-diazaspiro[3.4]octan-6-one], in that order: 46 nM and 78 nM.
Regarding `CN(C)[C@]1(c2cccc(F)c2)C[C@@]2(CN(CC3(F)COC3)C(=O)N2CC2CC2)C1` [SC-33, Cis-5-(cyclopropylmethyl)-2-(dimethylamino)-7-((3-fluorooxetan-3-yl)methyl)-2-(3-fluorophenyl)-5,7-diazaspiro[3.4]octan-6-one], the results for the inhibition constant (Ki) in test [1] and in test [2] were 23 nM and 115 nM, respectively.
Regarding `Cc1cc(C(F)F)ncc1N1C[C@]2(C[C@](c3cccc(F)c3)(N(C)C)C2)N(CC2CC2)C1=O` [SC-24, Cis-5-(cyclopropylmethyl)-7-(6-(difluoromethyl)-4-methylpyridin-3-yl)-2-(dimethylamino)-2-(3-fluorophenyl)-5,7-diazaspiro[3.4]octan-6-one], the Ki in test [1] was 23 nM; in test [2], 1180 nM.
`CN(C)[C@]1(c2ccccc2)C[C@@]2(CN(c3ccc(C4CC4)nc3)C(=O)N2CC2CC2)C1` [SC-34, Cis-5-(cyclopropylmethyl)-7-(6-cyclopropylpyridin-3-yl)-2-(dimethylamino)-2-phenyl-5,7-diazaspiro[3.4]octan-6-one]: the figures for the Ki in test [1] and in test [2] were 17 nM and 50 nM, respectively.
With `Cc1cc(N2CCOCC2)ncc1N1C[C@]2(C[C@](c3ccccc3)(N(C)C)C2)NC1=O` [SC-19, Cis-2-(dimethylamino)-7-(4-methyl-6-morpholinopyridin-3-yl)-2-phenyl-5,7-diazaspiro[3.4]octan-6-one], the results for the inhibition constant (Ki) in test [1] and in test [2] were 1810 nM and 5890 nM, respectively.
Turning to `CN(C)[C@]1(c2ccccc2)C[C@@]2(CN(c3ccc(OC(F)(F)F)cn3)C(=O)N2CC2(F)COC2)C1` [SC-29, Cis-2-(dimethylamino)-5-((3-fluorooxetan-3-yl)methyl)-2-phenyl-7-(5-(trifluoromethoxy)pyridin-2-yl)-5,7-diazaspiro[3.4]octan-6-one], the values for the Ki in test [1] and in test [2] were 16 nM and 65 nM, respectively.
For `CN(C)[C@]1(c2cccc(F)c2)C[C@@]2(CN(c3ccc(OC(F)(F)F)cn3)C(=O)N2CC2(F)COC2)C1` [SC-23, Cis- -2-(dimethylamino)-5-((3-fluorooxetan-3-yl)methyl)-2-(3-fluorophenyl)-7-(5-(trifluoromethoxy)pyridin-2-yl)-5,7-diazaspiro[3.4]octan-6-one], in that order: 25 nM and 545 nM.
Take `COc1nc(C#N)ncc1N1C[C@]2(C[C@](c3ccccc3)(N(C)C)C2)N(CC2CCC2)C1=O` [SC-10, cis-5-(5-(cyclobutylmethyl)-2-(dimethylamino)-6-oxo-2-phenyl-5,7-diazaspiro[3.4]octan-7-yl)-4-methoxypyrimidine-2-carbonitrile]: the results for the Ki in test [1] and in test [2] were 2 nM and 157 nM, respectively.
For the compound `Cc1cc(C2CC2)ncc1N1C[C@]2(C[C@](c3ccccc3)(N(C)C)C2)N(CC2CC2)C1=O` [SC-35, Cis-7-(6-cyclopropyl-4-methylpyridin-3-yl)-5-(cyclopropylmethyl)-2-(dimethylamino)-2-phenyl-5,7-diazaspiro[3.4]octan-6-one], the Ki in test [1] came to 19 nM; in test [2], 185 nM.
On to `Cc1cc(N2CCC2)ncc1N1C[C@]2(C[C@](c3ccccc3)(N(C)C)C2)NC1=O` [SC-13, cis-7-(6-(azetidin-1-yl)-4-methylpyridin-3-yl)-2-(dimethylamino)-2-phenyl-5,7-diazaspiro[3.4]octan-6-one], for which the Ki in test [1] turned out to be 860 nM. Moreover, the inhibition at 1 µM in test [2] came out at 18%.
Regarding `CN(C)[C@]1(c2ccccc2)C[C@@]2(CN(CC(=O)N3CCS(=O)(=O)CC3)C(=O)N2)C1` [SC-2, cis-2-(dimethylamino)-7-(2-(1,1-dioxidothiomorpholino)-2-oxoethyl)-2-phenyl-5,7-diazaspiro[3.4]octan-6-one], the Ki in test [1] is 850 nM. The inhibition at 1 µM in test [2] amounted to 12%.
Regarding `Cc1cc(C(C)(C)O)ccc1N1C[C@]2(C[C@](c3ccccc3)(N(C)C)C2)NC1=O` [SC-21, Cis-2-(dimethylamino)-7-(4-(2-hydroxypropan-2-yl)-2-methylphenyl)-2-phenyl-5,7-diazaspiro[3.4]octan-6-one], the Ki in test [1] stood at 775 nM; in test [2], 3580 nM.
Take `CN(C)[C@]1(c2ccccc2)C[C@@]2(CN(CCC#N)C(=O)N2CC2CC2)C1` [SC-45, Cis-3-[5-(cyclopropylmethyl)-2-(dimethylamino)-6-oxo-2-phenyl-5,7-diazaspiro[3.4]octan-7-yl]propanenitrile]: the results for the Ki in test [1] and in test [2] were 25 nM and 37 nM, respectively.
The like results for `CN(C)[C@]1(c2ccccc2)C[C@@]2(CN(c3cncc(C(F)(F)F)c3)C(=O)N2CC2CC2)C1` [SC-39, Cis-5-(cyclopropylmethyl)-2-(dimethylamino)-2-phenyl-7-[5-(trifluoromethyl)pyridin-3-yl]-5,7-diazaspiro[3.4]octan-6-one] were, in that order, 5 nM and 48 nM.
`CN(C)[C@]1(c2ccccc2)C[C@@]2(CN(CC3(O)CCC3)C(=O)N2CC2CC2)C1` [SC-46, Cis-5-(cyclopropylmethyl)-2-(dimethylamino)-7-[(1-hydroxycyclobutyl)methyl]-2-phenyl-5,7-diazaspiro[3.4]octan-6-one]: the Ki in test [1] was found to be 29 nM; in test [2], 48 nM.
Take `CN(C)[C@]1(c2ccccc2)C[C@]2(CN(CC(=O)N3CCS(=O)(=O)CC3)C(=O)N2CC2CCC2)C1` [SC-7, trans-5-(cyclobutylmethyl)-2-(dimethylamino)-7-(2-(1,1-dioxidothiomorpholino)-2-oxoethyl)-2-phenyl-5,7-diazaspiro[3.4]octan-6-one]: the Ki in test [1] worked out at 230 nM; in test [2], 2 nM.

The values are drawn from patent US10738015B2, “1,3-diaza-spiro-[3.4]-octane derivatives” (priority 2017, dated 2020).
